# According to patent US20230265151A1, “GIP/GLP1 CO-AGONIST COMPOUNDS” (priority 2020, published 2023):
# Where two headings read alike, the source gives them in different places. *1 amine or outer side, *2 acyl side, *3 side chain or, on linkers, in order; H or OH if unused. Where a SMILES comes first, the peptide text is derived from it. Side-chain parts run from the residue outwards. [ ]: non-standard residue; d: D form. The star is where a group is joined. αMePhe(2-F) = C[C@](N)(Cc1ccccc1F)C(=O)O; γGlu = O=C(O)[C@H](CCC(=O)[*:2])N[*:1]; C14 diacid = O=C(O)CCCCCCCCCCCCC(=O)*; αMeY = C[C@](N)(Cc1ccc(O)cc1)C(=O)O; αMeF = C[C@](N)(Cc1ccccc1)C(=O)O; 4Pal = N[C@@H](Cc1ccncc1)C(=O)O; αMeL = CC(C)C[C@](C)(N)C(=O)O; Lauroyl = CCCCCCCCCCCC(=O)*; Orn = NCCC[C@H](N)C(=O)O; AEEA = NCCOCCOCC(=O)O; Aib = CC(C)(N)C(=O)O
# How the values were obtained:
# Format in all cases: cell-based
# hGCGR = biological target: T1, hGCGR (Homo sapiens, UniProt P47871); assay: Functional cAMP formation (HTRF) in HEK-293 clonal cells expressing hGCGR, 0.1% bovine casein, without or with 1.0% human serum albumin
# T1 construct: expressed in transfected cells
# T1 sequence (P47871 26-477): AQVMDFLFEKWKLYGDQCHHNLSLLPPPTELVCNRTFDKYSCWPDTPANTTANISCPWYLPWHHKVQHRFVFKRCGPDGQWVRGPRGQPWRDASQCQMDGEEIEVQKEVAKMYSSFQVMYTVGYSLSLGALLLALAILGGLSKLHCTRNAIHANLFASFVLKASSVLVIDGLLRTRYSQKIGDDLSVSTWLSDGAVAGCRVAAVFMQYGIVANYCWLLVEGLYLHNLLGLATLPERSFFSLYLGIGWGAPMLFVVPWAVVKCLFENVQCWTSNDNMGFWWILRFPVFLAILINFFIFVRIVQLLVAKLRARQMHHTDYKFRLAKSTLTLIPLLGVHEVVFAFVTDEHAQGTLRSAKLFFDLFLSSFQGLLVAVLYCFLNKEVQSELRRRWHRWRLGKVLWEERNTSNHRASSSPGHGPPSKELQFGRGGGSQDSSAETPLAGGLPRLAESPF
# Method in brief: (§1)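 Cells were stimulated with peptide for 30 min at 37° C, then intracellular cAMP was measured by competitive HTRF (665/620 nm ratio) and converted to nM using a cAMP standard curve. Relative EC50 and Emax came from four-parameter logistic fits of percent maximal response against peptide concentration.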
# hGIPR = biological target: T2, hGIPR (Homo sapiens, UniProt P48546); assay: Functional cAMP formation (HTRF) in HEK-293 clonal cells expressing hGIPR, 0.1% bovine casein, without or with 1.0% human serum albumin; settings: for EC50: cAMP, 0.1% bovine casein (no human serum albumin), geometric mean, read-out: hGIPR EC50, nM (SEM, n)
# T2 construct: expressed in transfected cells
# T2 sequence (P48546 22-466): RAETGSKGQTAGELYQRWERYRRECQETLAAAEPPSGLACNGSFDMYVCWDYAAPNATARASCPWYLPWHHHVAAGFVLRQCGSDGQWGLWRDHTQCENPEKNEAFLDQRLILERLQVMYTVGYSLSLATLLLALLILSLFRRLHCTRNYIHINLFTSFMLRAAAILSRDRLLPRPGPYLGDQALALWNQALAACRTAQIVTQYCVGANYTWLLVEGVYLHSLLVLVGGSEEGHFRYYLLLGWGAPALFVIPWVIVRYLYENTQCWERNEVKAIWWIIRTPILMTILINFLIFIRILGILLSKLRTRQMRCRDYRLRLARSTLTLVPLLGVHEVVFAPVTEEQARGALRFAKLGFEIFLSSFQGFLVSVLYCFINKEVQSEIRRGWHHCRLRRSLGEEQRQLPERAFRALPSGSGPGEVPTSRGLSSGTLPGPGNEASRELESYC
# Method in brief: as §1
# hGLP-1R = hGLP-1R (Homo sapiens, UniProt P43220); assay: Functional cAMP formation (HTRF) in HEK-293 clonal cells expressing hGLP-1R, 0.1% bovine casein, without or with 1.0% human serum albumin; set-up: expressed in transfected cells; settings: for Emax: percent of maximal response to GLP-1(7-36)NH2
# Chain of hGLP-1R (P43220 24-463): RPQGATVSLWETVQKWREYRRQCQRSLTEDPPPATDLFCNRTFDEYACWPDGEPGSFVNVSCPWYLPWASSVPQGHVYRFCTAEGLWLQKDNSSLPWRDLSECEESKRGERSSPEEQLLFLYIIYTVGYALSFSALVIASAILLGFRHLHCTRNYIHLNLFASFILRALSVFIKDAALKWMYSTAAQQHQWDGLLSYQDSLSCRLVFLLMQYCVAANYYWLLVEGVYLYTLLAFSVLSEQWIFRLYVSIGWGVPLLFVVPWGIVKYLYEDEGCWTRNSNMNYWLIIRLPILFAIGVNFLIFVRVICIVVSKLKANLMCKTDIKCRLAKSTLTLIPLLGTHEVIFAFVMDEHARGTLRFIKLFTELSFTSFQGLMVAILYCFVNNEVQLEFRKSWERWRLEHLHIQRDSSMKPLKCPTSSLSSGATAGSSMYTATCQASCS
# Method in brief: as §1
# [1] = cAMP, 37° C., 0.1% bovine casein (no human serum albumin), geometric mean, read-out: hGCGR EC50, nM (SEM, n)
# [2] = cAMP, 37° C., 0.1% bovine casein and 1.0% human serum albumin, geometric mean (SEM, n), read-out: hGCGR EC50, nM (SEM, n)
# [3] = HEK293, cAMP, 37° C., 0.1% bovine casein and 1.0% human serum albumin, percent of maximal response to GIP(1-42)NH2, read-out: hGIPR Emax, % ± SEM
# [4] = HEK293, cAMP, 37° C., 0.1% bovine casein and 1.0% human serum albumin, read-out: hGLP-1R Emax, % ± SEM
# [5] = cAMP, 37° C., 0.1% bovine casein (no human serum albumin), geometric mean, read-out: hGLP-1R EC50, nM (SEM, n)
compound,measurement,setting,value
CC[C@H](C)[C@H](NC(=O)[C@H](CC(C)C)NC(=O)[C@](C)(Cc1ccc(O)cc1)NC(=O)[C@H](CCCCNC(=O)COCCOCCNC(=O)COCCOCCNC(=O)CC[C@H](NC(=O)CCCCCCCCCCCCC(=O)O)C(=O)O)NC(=O)[C@@H](NC(=O)[C@H](Cc1ccccc1)NC(=O)[C@H](CCC(=O)O)NC(=O)C(C)(C)NC(=O)[C@H](CCC(N)=O)NC(=O)[C@H](C)NC(=O)[C@H](CCC(N)=O)NC(=O)[C@H](CCCN)NC(=O)[C@H](CC(=O)O)NC(=O)[C@H](CC(C)C)NC(=O)[C@](C)(CC(C)C)NC(=O)[C@@H](NC(=O)C(C)(C)NC(=O)[C@@H](NC(=O)[C@H](CC(=O)O)NC(=O)[C@H](CO)NC(=O)[C@@H](NC(=O)[C@](C)(Cc1ccccc1F)NC(=O)[C@@H](NC(=O)CNC(=O)[C@H](CCC(=O)O)NC(=O)C(C)(C)NC(=O)[C@@H](N)Cc1ccc(O)cc1)[C@@H](C)O)[C@@H](C)O)C(C)C)[C@@H](C)CC)[C@@H](C)CC)C(=O)N[C@@H](CCCCNC(=O)COCCOCCNC(=O)COCCOCCNC(=O)CC[C@H](NC(=O)CCCCCCCCCCCCC(=O)O)C(=O)O)C(=O)NCC(=O)NCC(=O)N1CCC[C@H]1C(=O)N[C@@H](CO)C(=O)N[C@@H](CO)C(=O)NCC(=O)N[C@@H](C)C(=O)N1CCC[C@H]1C(=O)N1CCC[C@H]1C(=O)N1CCC[C@H]1C(=O)N[C@@H](CO)C(N)=O [Example 390] (H-Y[Aib]EGT[αMePhe(2-F)]TSDV[Aib]I[αMeL]LD[Orn]QAQ[Aib]EFIK([AEEA-AEEA-γGlu-C14 diacid])[αMeY]LIK([AEEA-AEEA-γGlu-C14 diacid])GGPSSGAPPPS-NH2),EC50,hGCGR; [1],> 9950 nM
same,EC50,hGCGR; [2],> 9950 nM
same,Emax,hGIPR; [3],89.3%
same,EC50,hGIPR; 37° C.,0.0187 nM
same,Emax,hGLP-1R; [4],94.6%
same,Emax,"hGLP-1R; HEK293, cAMP, 37° C., 0.1% bovine casein, arithmetic mean, read-out: hGLP-1R Emax, % ± SEM",97.7%
same,EC50,hGLP-1R; [5],0.209 nM
same,EC50,"hGLP-1R; cAMP, 37° C., 0.1% bovine casein and 1.0% human serum albumin, geometric mean (SEM, n), read-out: hGLP-1R EC50, nM (SEM, n)",24.3 nM
CC[C@H](C)[C@H](NC(=O)[C@H](CCCN)NC(=O)[C@H](CC(=O)O)NC(=O)[C@H](CC(C)C)NC(=O)[C@](C)(CC(C)C)NC(=O)[C@@H](NC(=O)[C@H](CO)NC(=O)[C@H](Cc1ccc2ccccc2c1)NC(=O)[C@H](CC(=O)O)NC(=O)[C@H](CO)NC(=O)[C@@H](NC(=O)[C@](C)(Cc1ccccc1F)NC(=O)[C@@H](NC(=O)CNC(=O)[C@H](CCC(=O)O)NC(=O)C(C)(C)NC(=O)[C@@H](N)Cc1ccc(O)cc1)[C@@H](C)O)[C@@H](C)O)[C@@H](C)CC)C(=O)N[C@@H](C)C(=O)N[C@@H](CCC(N)=O)C(=O)NC(C)(C)C(=O)N[C@@H](CCC(=O)O)C(=O)N[C@@H](Cc1ccccc1)C(=O)N[C@H](C(=O)N[C@@H](CCCCNC(=O)COCCOCCNC(=O)COCCOCCNC(=O)CC[C@H](NC(=O)CCCCCCCCCOc1ccc(C(=O)O)cc1)C(=O)O)C(=O)N[C@@](C)(Cc1ccc(O)cc1)C(=O)N[C@@H](CC(C)C)C(=O)N[C@H](C(=O)N[C@@H](CCCCNC(=O)COCCOCCNC(=O)COCCOCCNC(=O)CC[C@H](NC(=O)CCCCCCCCCOc1ccc(C(=O)O)cc1)C(=O)O)C(=O)NCC(=O)NCC(=O)N1CCC[C@H]1C(=O)N[C@@H](CO)C(=O)N[C@@H](CO)C(=O)NCC(=O)N[C@@H](C)C(=O)N1CCC[C@H]1C(=O)N1CCC[C@H]1C(=O)N1CCC[C@H]1C(=O)N[C@@H](CO)C(N)=O)[C@@H](C)CC)[C@@H](C)CC [Example 283],EC50,"hGCGR; hGCGR EC50, nM (SEM, n), 0.1% bovine casein and 1.0% human serum albumin, 37° C., geometric mean",> 9950 nM
same,EC50,"hGCGR; hGCGR EC50, nM (SEM, n), cAMP, 37° C., 0.1% bovine casein (no human serum albumin), geometric mean",> 9950 nM
same,Emax,"hGIPR; HEK293, read-out: hGIPR Emax, % ± SEM, 0.1% bovine casein and 1.0% human serum albumin, 37° C., percent of maximal response to GIP(1-42)NH2",114%
same,Emax,"hGLP-1R; HEK293, read-out: hGLP-1R Emax, % ± SEM, 0.1% bovine casein and 1.0% human serum albumin, 37° C.",96.6%
same,EC50,"hGLP-1R; hGLP-1R EC50, nM (SEM, n), cAMP, 37° C., 0.1% bovine casein (no human serum albumin), geometric mean",1.14 nM
CC[C@H](C)[C@H](NC(=O)[C@H](CC(C)C)NC(=O)[C@](C)(Cc1ccc(O)cc1)NC(=O)[C@@H](CCC(=O)O)NC(=O)[C@@H](NC(=O)[C@H](Cc1ccccc1)NC(=O)[C@H](CCC(=O)O)NC(=O)C(C)(C)NC(=O)[C@H](CCC(N)=O)NC(=O)[C@H](C)NC(=O)[C@H](CCCCNC(=O)COCCOCCNC(=O)COCCOCCNC(=O)CC[C@H](NC(=O)CCCCCCCCCCCCC(=O)O)C(=O)O)NC(=O)[C@H](CCCN)NC(=O)[C@H](CC(=O)O)NC(=O)[C@H](CC(C)C)NC(=O)[C@](C)(CC(C)C)NC(=O)[C@@H](NC(=O)[C@H](CN)NC(=O)[C@H](Cc1ccc(O)cc1)NC(=O)[C@H](CC(=O)O)NC(=O)[C@H](CO)NC(=O)[C@@H](NC(=O)[C@](C)(Cc1ccccc1F)NC(=O)[C@@H](NC(=O)CNC(=O)[C@H](CCC(=O)O)NC(=O)C(C)(C)NC(=O)[C@@H](N)Cc1ccc(O)cc1)[C@@H](C)O)[C@@H](C)O)[C@@H](C)CC)[C@@H](C)CC)C(=O)N[C@@H](CCC(=O)O)C(=O)NCC(=O)NCC(=O)N[C@@H](CCCCNC(=O)COCCOCCNC(=O)COCCOCCNC(=O)CC[C@H](NC(=O)CCCCCCCCCCCCC(=O)O)C(=O)O)C(=O)N[C@@H](CO)C(=O)N[C@@H](CO)C(=O)NCC(=O)N[C@@H](C)C(=O)N1CCC[C@H]1C(=O)N1CCC[C@H]1C(=O)N1CCC[C@H]1C(=O)N[C@@H](CO)C(N)=O [Example 200],EC50,"hGCGR; 0.1% bovine casein and 1.0% human serum albumin, 37° C., geometric mean, read-out: hGCGR EC50, nM (SEM, n)",> 9950 nM
same,EC50,"hGCGR; cAMP, incubated at 37° C., 0.1% bovine casein (no human serum albumin), geometric mean, read-out: hGCGR EC50, nM (SEM, n)",> 9950 nM
same,Emax,"hGIPR; HEK293, 0.1% bovine casein and 1.0% human serum albumin, 37° C., percent of maximal response to GIP(1-42)NH2, read-out: hGIPR Emax, % ± SEM",83.7%
same,Emax,"hGIPR; HEK293, percent of maximal response to GIP(1-42)NH2, 37° C., 0.1% bovine casein, arithmetic mean, read-out: hGIPR Emax, % ± SEM",96.3 ± 2.76%
same,EC50,"hGLP-1R; 0.1% bovine casein and 1.0% human serum albumin, 37° C., geometric mean, read-out: hGLP-1R EC50, nM (SEM, n)",26.6 nM
same,Emax,"hGLP-1R; HEK293, 0.1% bovine casein and 1.0% human serum albumin, 37° C., read-out: hGLP-1R Emax, % ± SEM",97.4%
CCCCCCCCCCCC(=O)N[C@@H](CCC(=O)NCCOCCOCC(=O)NCCOCCOCC(=O)NCCCC[C@H](NC(=O)[C@H](CO)NC(=O)[C@@H]1CCCN1C(=O)[C@@H]1CCCN1C(=O)[C@@H]1CCCN1C(=O)[C@H](C)NC(=O)CNC(=O)[C@H](CO)NC(=O)[C@H](CO)NC(=O)[C@@H]1CCCN1C(=O)CNC(=O)CNC(=O)[C@H](CCC(=O)O)NC(=O)[C@@H](NC(=O)[C@H](CC(C)C)NC(=O)[C@](C)(Cc1ccc(O)cc1)NC(=O)[C@@H](CCC(=O)O)NC(=O)[C@@H](NC(=O)[C@](C)(Cc1ccccc1)NC(=O)[C@H](CCC(=O)O)NC(=O)C(C)(C)NC(=O)[C@H](CCC(N)=O)NC(=O)[C@H](C)NC(=O)[C@H](CCCCNC(=O)COCCOCCNC(=O)COCCOCCNC(=O)CC[C@H](NC(=O)CCCCCCCCCCC)C(=O)O)NC(=O)[C@H](CCCN)NC(=O)[C@H](CC(=O)O)NC(=O)[C@H](CC(C)C)NC(=O)[C@](C)(CC(C)C)NC(=O)[C@@H](NC(=O)C(C)(C)NC(=O)[C@H](Cc1ccncc1)NC(=O)[C@H](CC(=O)O)NC(=O)[C@H](CO)NC(=O)[C@@H](NC(=O)[C@](C)(Cc1ccccc1F)NC(=O)[C@@H](NC(=O)CNC(=O)[C@H](CCC(=O)O)NC(=O)C(C)(C)NC(=O)[C@@H](N)Cc1ccc(O)cc1)[C@@H](C)O)[C@@H](C)O)[C@@H](C)CC)[C@@H](C)CC)[C@@H](C)CC)C(N)=O)C(=O)O [Example 431] (H-Y[Aib]EGT[αMePhe(2-F)]TSD[4Pal][Aib]I[αMeL]LD[Orn]K([AEEA-AEEA-γGlu-Lauroyl])AQ[Aib]E[αMeF]I[dE][αMeY]LIEGGPSSGAPPPSK([AEEA-AEEA-γGlu-Lauroyl])-NH2),EC50,hGCGR; [1],> 9950 nM
same,EC50,hGCGR; [2],> 9950 nM
same,Emax,hGIPR; [3],98%
same,EC50,hGIPR; 37° C.,0.0097 nM
same,Emax,hGLP-1R; [4],91.6%
same,EC50,hGLP-1R; [5],0.134 nM
